Source: ChEMBL document CHEMBL4007467, “Effects of 6-paradol, an unsaturated ketone from gingers, on cytochrome P450-mediated drug metabolism” (Bioorg Med Chem Lett, 2017)

What was measured:
Format in all cases: ADME
[1] = biological target: T1, Cytochrome P450 2D6 (Homo sapiens, UniProt P10635); assay: Inhibition of CYP2D6 in human liver microsomes using dextromethorphan as substrate preincubated for 10 mins followed by NADPH addition measured after 15 mins
[2] = biological target: T2, Cytochrome P450 2C9 (Homo sapiens, UniProt P11712); assay: Inhibition of CYP2C9 in human liver microsomes using diclofenac as substrate preincubated for 10 mins followed by NADPH addition measured after 7 mins
T2 sequence (P11712 whole entry): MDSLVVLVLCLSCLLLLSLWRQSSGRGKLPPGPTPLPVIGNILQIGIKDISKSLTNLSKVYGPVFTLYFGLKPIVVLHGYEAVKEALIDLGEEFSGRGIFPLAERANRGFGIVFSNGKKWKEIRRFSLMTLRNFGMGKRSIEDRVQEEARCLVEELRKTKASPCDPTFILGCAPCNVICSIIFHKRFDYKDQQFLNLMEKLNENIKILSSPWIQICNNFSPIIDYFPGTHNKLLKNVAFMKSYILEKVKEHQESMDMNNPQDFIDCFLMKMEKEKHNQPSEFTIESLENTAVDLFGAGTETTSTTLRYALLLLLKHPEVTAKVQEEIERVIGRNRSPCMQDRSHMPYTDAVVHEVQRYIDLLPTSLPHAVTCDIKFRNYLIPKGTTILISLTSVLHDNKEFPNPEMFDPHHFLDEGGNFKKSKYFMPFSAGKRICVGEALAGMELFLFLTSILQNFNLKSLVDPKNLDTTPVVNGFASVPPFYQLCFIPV

[3] = biological target: T3, Cytochrome P450 2C19 (Homo sapiens, UniProt P33261); assay: Inhibition of recombinant human CYP2C19 expressed in baculosomes using Vivid EOMCC substrate blue measured every 30 sec for 30 mins by fluorescence assay
T3 sequence (P33261 whole entry): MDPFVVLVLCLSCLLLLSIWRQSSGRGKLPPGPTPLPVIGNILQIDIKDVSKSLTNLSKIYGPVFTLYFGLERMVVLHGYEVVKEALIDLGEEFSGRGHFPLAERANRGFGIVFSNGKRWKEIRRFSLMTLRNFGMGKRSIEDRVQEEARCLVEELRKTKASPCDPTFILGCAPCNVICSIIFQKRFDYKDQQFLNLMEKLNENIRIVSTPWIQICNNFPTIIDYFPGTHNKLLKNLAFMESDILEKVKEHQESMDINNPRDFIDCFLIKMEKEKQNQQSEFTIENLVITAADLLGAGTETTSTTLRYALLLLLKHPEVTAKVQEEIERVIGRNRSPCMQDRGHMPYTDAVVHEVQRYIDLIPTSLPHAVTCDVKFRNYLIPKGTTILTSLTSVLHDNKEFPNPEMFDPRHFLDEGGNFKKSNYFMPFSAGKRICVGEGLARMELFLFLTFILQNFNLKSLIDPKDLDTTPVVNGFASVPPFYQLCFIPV

[4] = biological target: T4, Cytochrome P450 3A4 (Homo sapiens, UniProt P08684); assay: Inhibition of CYP3A4 in human liver microsomes using testosterone as substrate preincubated for 10 mins followed by NADPH addition measured after 10 mins
T4 sequence (P08684 whole entry): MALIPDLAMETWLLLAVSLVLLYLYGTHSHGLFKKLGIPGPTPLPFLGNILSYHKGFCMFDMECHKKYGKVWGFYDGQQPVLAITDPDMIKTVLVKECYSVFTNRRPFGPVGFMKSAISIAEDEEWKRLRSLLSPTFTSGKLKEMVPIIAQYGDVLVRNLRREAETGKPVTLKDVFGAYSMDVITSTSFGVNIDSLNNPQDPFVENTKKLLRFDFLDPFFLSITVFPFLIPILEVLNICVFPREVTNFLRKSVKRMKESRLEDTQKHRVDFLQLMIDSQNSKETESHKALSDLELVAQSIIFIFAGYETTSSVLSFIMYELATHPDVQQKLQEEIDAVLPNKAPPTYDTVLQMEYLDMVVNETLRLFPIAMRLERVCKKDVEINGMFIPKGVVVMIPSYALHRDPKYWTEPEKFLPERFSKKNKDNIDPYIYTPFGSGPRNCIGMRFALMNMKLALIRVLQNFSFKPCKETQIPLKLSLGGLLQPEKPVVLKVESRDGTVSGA

[5] = biological target: T4, Cytochrome P450 3A4; assay: Inhibition of recombinant human CYP3A4 expressed in baculosomes using Vivid BOMR substrate red measured every 30 sec for 30 mins by fluorescence assay
[6] = biological target: T5, Cytochrome P450 2B6 (Homo sapiens, UniProt P20813); assay: Inhibition of CYP2B6 in human liver microsomes using bupropion as substrate preincubated for 10 mins followed by NADPH addition measured after 20 mins
T5 sequence (P20813 whole entry): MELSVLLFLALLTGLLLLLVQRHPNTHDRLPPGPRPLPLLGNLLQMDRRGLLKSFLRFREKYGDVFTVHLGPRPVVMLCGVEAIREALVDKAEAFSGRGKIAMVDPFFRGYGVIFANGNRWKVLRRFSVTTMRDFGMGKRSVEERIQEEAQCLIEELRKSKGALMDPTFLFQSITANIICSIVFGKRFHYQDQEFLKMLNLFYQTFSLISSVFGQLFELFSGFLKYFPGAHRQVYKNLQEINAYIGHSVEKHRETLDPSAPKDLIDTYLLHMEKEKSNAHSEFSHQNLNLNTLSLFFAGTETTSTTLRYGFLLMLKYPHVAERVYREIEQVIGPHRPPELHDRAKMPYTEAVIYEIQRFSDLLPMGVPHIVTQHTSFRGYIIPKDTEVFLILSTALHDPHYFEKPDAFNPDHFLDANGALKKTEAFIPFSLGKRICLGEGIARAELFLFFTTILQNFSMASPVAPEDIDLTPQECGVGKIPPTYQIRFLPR

[7] = biological target: T6, Cytochrome P450 2E1 (Homo sapiens, UniProt P05181); assay: Inhibition of CYP2E1 in human liver microsomes using chlorzoxazone as substrate preincubated for 10 mins followed by NADPH addition measured after 20 mins
T6 sequence (P05181 whole entry): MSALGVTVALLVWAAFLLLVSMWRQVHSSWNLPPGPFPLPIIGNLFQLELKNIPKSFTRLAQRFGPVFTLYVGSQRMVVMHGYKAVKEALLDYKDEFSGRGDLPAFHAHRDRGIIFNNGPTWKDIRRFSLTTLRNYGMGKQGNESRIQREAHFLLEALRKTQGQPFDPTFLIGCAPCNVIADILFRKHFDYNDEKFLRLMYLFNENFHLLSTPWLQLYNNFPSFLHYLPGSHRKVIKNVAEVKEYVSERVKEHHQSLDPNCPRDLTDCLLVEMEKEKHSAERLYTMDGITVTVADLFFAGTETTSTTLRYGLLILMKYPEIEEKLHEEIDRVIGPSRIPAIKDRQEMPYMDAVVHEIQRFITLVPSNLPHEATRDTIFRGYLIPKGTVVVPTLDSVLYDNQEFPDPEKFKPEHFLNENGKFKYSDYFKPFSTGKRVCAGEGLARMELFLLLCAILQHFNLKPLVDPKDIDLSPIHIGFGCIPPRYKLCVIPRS

[8] = biological target: T4, Cytochrome P450 3A4; assay: Inhibition of recombinant human CYP3A4 expressed in baculosomes using Vivid DBOMF substrate green measured every 30 sec for 30 mins by fluorescence assay
[9] = biological target: T7, Cytochrome P450 2C8 (Homo sapiens, UniProt P10632); assay: Inhibition of CYP2C8 in human liver microsomes using amodiaquin as substrate preincubated for 10 mins followed by NADPH addition measured after 10 mins
T7 sequence (P10632 whole entry): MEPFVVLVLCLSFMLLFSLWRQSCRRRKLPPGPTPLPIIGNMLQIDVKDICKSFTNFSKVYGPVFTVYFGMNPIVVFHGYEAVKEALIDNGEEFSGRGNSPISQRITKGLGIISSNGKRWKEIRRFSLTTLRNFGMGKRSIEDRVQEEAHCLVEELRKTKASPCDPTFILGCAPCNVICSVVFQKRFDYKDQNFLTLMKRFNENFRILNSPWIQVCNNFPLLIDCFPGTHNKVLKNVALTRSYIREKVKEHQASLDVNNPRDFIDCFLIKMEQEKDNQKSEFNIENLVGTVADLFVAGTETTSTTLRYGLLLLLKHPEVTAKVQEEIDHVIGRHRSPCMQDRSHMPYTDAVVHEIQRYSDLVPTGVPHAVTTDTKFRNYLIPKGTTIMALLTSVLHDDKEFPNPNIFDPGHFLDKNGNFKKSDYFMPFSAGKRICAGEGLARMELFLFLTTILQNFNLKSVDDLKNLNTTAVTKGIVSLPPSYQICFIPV

[10] = biological target: T8, Cytochrome P450 2A6 (Homo sapiens, UniProt P11509); assay: Inhibition of CYP2A6 in human liver microsomes using Coumarin as substrate preincubated for 10 mins followed by NADPH addition measured after 15 mins
T8 sequence (P11509 whole entry): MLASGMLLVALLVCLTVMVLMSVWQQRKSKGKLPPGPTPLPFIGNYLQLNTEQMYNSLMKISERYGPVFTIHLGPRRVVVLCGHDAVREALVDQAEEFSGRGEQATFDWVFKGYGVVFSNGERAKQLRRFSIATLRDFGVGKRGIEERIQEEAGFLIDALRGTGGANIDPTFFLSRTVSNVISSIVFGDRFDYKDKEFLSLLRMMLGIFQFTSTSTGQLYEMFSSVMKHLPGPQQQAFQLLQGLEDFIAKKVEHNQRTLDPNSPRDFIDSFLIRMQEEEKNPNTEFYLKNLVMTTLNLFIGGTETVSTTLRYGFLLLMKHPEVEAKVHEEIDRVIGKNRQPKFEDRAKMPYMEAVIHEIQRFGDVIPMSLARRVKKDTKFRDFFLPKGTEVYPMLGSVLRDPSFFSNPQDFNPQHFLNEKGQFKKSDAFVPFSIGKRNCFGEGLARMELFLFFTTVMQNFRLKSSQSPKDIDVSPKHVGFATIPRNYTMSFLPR

[11] = biological target: T2, Cytochrome P450 2C9; assay: Inhibition of recombinant human CYP2C9 expressed in baculosomes using Vivid OOMR substrate red measured every 30 sec for 30 mins by fluorescence assay
[12] = biological target: T4, Cytochrome P450 3A4; assay: Inhibition of recombinant human CYP3A4 expressed in baculosomes using Vivid BOMCC substrate blue measured every 30 sec for 30 mins by fluorescence assay
[13] = biological target: T1, Cytochrome P450 2D6; assay: Inhibition of recombinant human CYP2D6 expressed in baculosomes using Vivid EOMCC substrate blue measured every 30 sec for 30 mins by fluorescence assay
[14] = biological target: T9, Cytochrome P450 1A2 (Homo sapiens, UniProt P05177); assay: Inhibition of CYP1A2 in human liver microsomes using phenacetin as substrate preincubated for 10 mins followed by NADPH addition measured after 10 mins
T9 sequence (P05177 whole entry): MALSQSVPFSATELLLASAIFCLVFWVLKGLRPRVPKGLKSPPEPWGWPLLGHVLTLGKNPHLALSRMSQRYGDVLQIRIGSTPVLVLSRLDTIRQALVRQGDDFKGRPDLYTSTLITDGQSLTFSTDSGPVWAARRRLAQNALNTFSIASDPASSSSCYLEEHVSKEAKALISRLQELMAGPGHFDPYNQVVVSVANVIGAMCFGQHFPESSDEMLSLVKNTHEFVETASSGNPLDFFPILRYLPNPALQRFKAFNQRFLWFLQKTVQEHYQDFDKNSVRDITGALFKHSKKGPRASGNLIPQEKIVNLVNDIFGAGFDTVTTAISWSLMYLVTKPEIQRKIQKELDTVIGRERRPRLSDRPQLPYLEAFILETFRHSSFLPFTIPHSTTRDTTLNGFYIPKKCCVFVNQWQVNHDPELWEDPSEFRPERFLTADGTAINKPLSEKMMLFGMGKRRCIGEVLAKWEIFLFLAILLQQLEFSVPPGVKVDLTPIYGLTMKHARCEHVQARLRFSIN

[15] = biological target: T3, Cytochrome P450 2C19; assay: Inhibition of CYP2C19 in human liver microsomes using (S)-mephenytoin as substrate preincubated for 10 mins followed by NADPH addition measured after 40 mins
[16] = biological target: T4, Cytochrome P450 3A4; assay: Inhibition of CYP3A4 in human liver microsomes using midazolam as substrate
[17] = biological target: T3, Cytochrome P450 2C19; assay: Inhibition of CYP2C19 in human liver microsomes using (S)-mephenytoin as substrate by HPLC analysis
[18] = biological target: T9, Cytochrome P450 1A2; assay: Inhibition of CYP1A2 in human liver microsomes using phenacetin as substrate by HPLC analysis
[19] = biological target: T6, Cytochrome P450 2E1; assay: Inhibition of CYP2E1 in human liver microsomes using chlorzoxazone as substrate by HPLC analysis
[20] = biological target: T2, Cytochrome P450 2C9; assay: Inhibition of CYP2C9 in human liver microsomes using tolbutamide as substrate by HPLC analysis
[21] = biological target: T4, Cytochrome P450 3A4; assay: Inhibition of CYP3A4 in human liver microsomes using midazolam as substrate preincubated for 10 mins followed by NADPH addition measured after 5 mins

T1 sequence (P10635 whole entry): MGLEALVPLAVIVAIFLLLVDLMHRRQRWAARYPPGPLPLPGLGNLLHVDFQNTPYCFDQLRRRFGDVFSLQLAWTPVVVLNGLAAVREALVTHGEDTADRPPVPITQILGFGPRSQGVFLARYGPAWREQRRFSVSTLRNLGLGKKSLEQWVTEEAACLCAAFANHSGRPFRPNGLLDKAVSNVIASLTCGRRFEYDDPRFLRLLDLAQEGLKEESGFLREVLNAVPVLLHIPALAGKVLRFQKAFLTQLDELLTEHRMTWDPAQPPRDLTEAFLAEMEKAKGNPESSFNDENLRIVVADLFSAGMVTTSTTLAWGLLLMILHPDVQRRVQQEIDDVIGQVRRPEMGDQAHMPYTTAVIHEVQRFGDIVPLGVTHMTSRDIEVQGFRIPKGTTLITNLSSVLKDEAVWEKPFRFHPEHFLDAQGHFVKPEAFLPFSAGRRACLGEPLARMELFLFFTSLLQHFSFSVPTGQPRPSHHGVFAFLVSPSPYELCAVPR

Compound | IC50 [1] | IC50 [2] | IC50 [3] | IC50 [4] | IC50 [5] | IC50 [6] | IC50 [7] | IC50 [8] | IC50 [9] | IC50 [10] | IC50 [11] | IC50 [12] | IC50 [14] | IC50 [15] | also measured
CCCCCCC[C@H](O)CC(=O)CCc1ccc(O)c(OC)c1 | 74.5 µM | 8.7 µM | 12.5 µM | 8.1 µM | 10.5 µM | 8.1 µM | 93.2 µM | 11.6 µM | 2200 nM | 59 µM | 6.8 µM | 8.7 µM | 27.3 µM | 8.1 µM | IC50 [13]: 42.7 µM
CCCCCCCCC[C@H](O)CC(=O)CCc1ccc(O)c(OC)c1 | 54.9 µM | 7.5 µM | 13.6 µM | 7.1 µM | 24.9 µM | 4.3 µM | – | 21.8 µM | 2000 nM | 98.3 µM | 16.3 µM | 20.8 µM | – | 6.6 µM | –
CCCCC[C@H](O)CC(=O)CCc1ccc(O)c(OC)c1 [GINGEROL] | – | – | 30.7 µM | – | 42.9 µM | 40.8 µM | – | 32 µM | – | – | 12.1 µM | 21.8 µM | – | – | IC50 [16]: 73.4 µM
CCCCC/C=C/C(=O)CCc1ccc(O)c(OC)c1 [SHOGAOL] | 87 µM | 3.3 µM | – | 8.3 µM | 4 µM | 5.8 µM | 76.1 µM | – | 2900 nM | 83.3 µM | – | – | 2.5 µM | – | IC50 [17]: 18.8 µM; IC50 [18]: 20.7 µM; IC50 [19]: 99.6 µM; IC50 [20]: 29.2 µM; IC50 [21]: 65.2 µM
